# Laboratory results published in paper PMC11189555, “Aryl amino acetamides prevent Plasmodium falciparum ring development via targeting the lipid-transfer protein PfSTART1” (Nature Communications, 2024).
# Values joined by “and” are separate entries in the source; they are usually repeats but may differ in a detail not shown here. Equal values may be shown once.
# How the values were obtained:
# [1] = system: 3D7, SLI- and CR- WT, N309K, N330K parasites; assay: Parasite growth over 72 h in the presence of GlcN (LDH); type: cell-based, Plasmodium falciparum; settings: for Growth over 72 h, 0.25 mM / 0 mM: 0.25 mM GlcN; for Growth over 72 h, 0.25 mM / 0 mM / Growth over 72 h, 2.5 mM / 0 mM: biological replicates 1-4
# Method: thereafter called SLI-WT, SLI-N309K and SLI-N330K). gDNA was extracted and a PCR was conducted to check for correct integration using primers START_5’UTR.F and START_Seq.R (Table S2); the same PCR on 3D7 gDNA was used as a control, as no bands should be observed in the 3D7 samples. (B) The sequencing of the PCR […]
# and that SLI-N309K and SLI-N330K contain the correct mutations. (C) Growth of 3D7, SLI-WT, -N309K or -N330K over 72 h in the presence of 0, 0.25 or 2.5 mM GlcN was measured with an LDH assay. Growth was normalised to the 0 mM GlcN condition. n=4 biological replicates. Ordinary one-way ANOVA with Dunnett’s multiple comparison test (comparison to the 0 mM condition). **: p<0.005. ***: p<0.0005. ****: p<0.0001. (D) Similar to SLI parasites, CRISPR transfectant parasites were cloned:
# CR-WT clone D2, CR-N309K clone C10 and CR-N330K clone B2, thereafter called CR-WT, CR-N309K and CR-N330K. A PCR was conducted to check for correct integration using primers START_5’UTR.F and START_IntR1; 3D7 gDNA was used […]
# wild-type version of pfstart1, and that CR-N309K and CR-N330K contain the correct mutations. (F) Growth of 3D7, CR-WT, -N309K or -N330K over 72 h in the presence of 0, 0.25 or 2.5 mM GlcN was measured by LDH assay (same as (C); n=6 biological replicates). Source data are provided as a Source Data file. […]
# and compound 4. Note that M-833 was first purchased from MolPort (MolPort -002-267-916) then made in-house at WEHI: the differences observed in EC50s across experiments are attributed to the different batches of M -833. For some experiments, 0, 0.25 or 2.5 mM of glucosamine (GlcN) was also added. Experiments were set up in technical duplicates or triplicates. Following a freeze -thaw cycle, lactate dehydrogenase (LDH) activity was assessed as an indicator of parasite growt h 5. 30 μL of parasite culture was incubated for 30 min in the dark with 75 μL Malstat mixture (0.1 M Tris pH 9.0, 20 g/L lactic acid, pH 7.5, 0.2% Triton-X100, 0.5 g/L acetylpyridine adenine dinucleotide (APAD, Sigma), 200 μg/mL nitroblue tetrazolium (NBT; Sigma), 1 μg/mL phenozine ethosulfate (PES; Sigma)). Absorbance was then measured at 650 nm, transformed using the formula below, plotted against the logarithm of the concentrations, and a non-linear regression (log(inhibitor) vs. response, variable slope) was calculated using GraphPad Prism to assess the half-inhibitory […]
# Growth inhibition % = (1 − average(sample)− average(uRBC)) ∗ 100 […]
# The DMSO samples were also used to assess growth of parasite in the presence of 0.25 and 2.5 mM GlcN (normalised by DMSO in 0 mM GlcN). […]
# [2] = system: PfSTART1; assay: PfSTART1 knock-down by glucosamine (glmS riboswitch), Western blot densitometry; type: cell-based, Plasmodium falciparum; settings: 2.5 mM GlcN; for START densitometry, Norm 0 mM [EXP2]: one value per biological replicate; for START densitometry, norm 0/EXP2: START band normalised to EXP2, then to 0 mM GlcN of the same line; for START densitometry, norm 0/EXP2 / START densitometry, norm 0/HSP / START densitometry, norm 3D7, EXP2 / START densitometry, norm 3D7, HSP70: 3 biological replicates; for START densitometry, norm 0/HSP: START band normalised to HSP70, then to 0 mM GlcN of the same line; for START densitometry, norm 3D7, EXP2: START/EXP2 relative to 3D7 at 0 mM GlcN (=1.00E+02); for START densitometry, norm 3D7, HSP70: START/HSP70 relative to 3D7 at 0 mM GlcN (=1.00E+02); for PfSTART1 knockdown: 48 h
# Method: Parasites were prepared for the stage of interest and proteins were extracted using a saponin-lysis (unless indicated otherwise). For knock-down assays, parasites were exposed to 0 or 2.5 mM GlcN for 48 h (starting from late schizont/early rings): the day before harvesting schizonts, 30 nM ML10 (LifeArc) was also added to the cultures to block egress. Infected red blood cells were lysed 10 min on ice with 0.1% saponin in PBS complemented with 1x Protease Inhibitors Cocktail (Roche; PBS + PI). Parasites were pelleted and washed with PBS + PI to remove haemoglobin. […] Protein samples were centrifuged at 15,000 g, then run on a pre-cast 4-12% NuPAGE Bis-Tris gel (Invitrogen) and proteins were transferred onto a nitrocellulose membrane using iBlot (Invitrogen). Membranes were exposed to the primary antibody overnight at 4 °C, to the secondary antibody 1 h at room temperature, and fluorescence was measured using an Odyssey imaging system, which was also used to measure densitometry. The list of antibodies used, their dilution, and origins are described in Table S3.
smiles,measurement,setting,value
"N[C@H]1C(O)O[C@H](CO)[C@@H](O)[C@@H]1O (stereo partly shown) [GlcN, glucosamine]","Growth over 72 h, 0.25 mM / 0 mM",[1]; SLI-N330K,88.793 and 84.0431 and 73.2682 and 86.1624
same,"Growth over 72 h, 2.5 mM / 0 mM","[1]; SLI-N330K, 2.5 mM GlcN",52.5716 and 59.0221 and 51.4095 and 62.9405
same,"Growth over 72 h, 0.25 mM / 0 mM",[1]; SLI-WT,108.267 and 89.5536 and 80.5452 and 87.3943
same,"Growth over 72 h, 2.5 mM / 0 mM","[1]; SLI-WT, 2.5 mM GlcN",78.3352 and 62.7379 and 46.4436 and 59.8798
same,growth less than in the absence of GlcN,"[1]; most SLI- and CR- lines, 2.5 mM GlcN, 72 h",approximately 40%
same,"START densitometry, Norm 0 mM [EXP2]",[2]; 3D7,1.02E+02 and 1.14E+02 and 9.72E+01
same,"START densitometry, norm 0/EXP2",[2]; 3D7 parasites,1.29E+02 and 9.38E+01 and 8.16E+01
same,"START densitometry, norm 0/HSP",[2]; 3D7 parasites,1.32E+02 and 1.01E+02 and 9.77E+01
same,"START densitometry, norm 3D7, EXP2",[2]; 3D7 parasites,1.29E+02 and 9.38E+01 and 8.16E+01
same,"START densitometry, norm 3D7, HSP70",[2]; 3D7 parasites,1.32E+02 and 1.01E+02 and 9.77E+01
same,"START densitometry, norm 0/EXP2",[2]; CR-N309K parasites,1.17E+01 and 2.98E+01 and 1.90E+01
same,"START densitometry, norm 0/HSP",[2]; CR-N309K parasites,2.14E+01 and 2.66E+01 and 2.27E+01
same,"START densitometry, norm 3D7, EXP2",[2]; CR-N309K parasites,1.40E+01 and 3.50E+01 and 1.71E+01
same,"START densitometry, norm 3D7, HSP70",[2]; CR-N309K parasites,1.73E+01 and 1.93E+01 and 2.63E+01
same,PfSTART1 knockdown,[2]; CR-N309K schizonts,81%
same,"START densitometry, norm 0/EXP2",[2]; CR-N330K parasites,1.02E+01 and 3.10E+01 and 7.15E+00
same,"START densitometry, norm 0/HSP",[2]; CR-N330K parasites,2.77E+01 and 2.71E+01 and 1.13E+01
same,"START densitometry, norm 3D7, EXP2",[2]; CR-N330K parasites,1.13E+01 and 3.35E+01 and 1.19E+01
same,"START densitometry, norm 3D7, HSP70",[2]; CR-N330K parasites,2.31E+01 and 2.22E+01 and 2.51E+01
same,PfSTART1 knockdown,[2]; CR-N330K schizonts,84%
same,"START densitometry, norm 0/EXP2",[2]; CR-WT parasites,2.42E+01 and 2.14E+01 and 2.95E+01
same,"START densitometry, norm 0/HSP",[2]; CR-WT parasites,2.70E+01 and 2.58E+01 and 2.79E+01
same,"START densitometry, norm 3D7, EXP2",[2]; CR-WT parasites,3.52E+01 and 2.52E+01 and 2.73E+01
same,"START densitometry, norm 3D7, HSP70",[2]; CR-WT parasites,2.33E+01 and 2.02E+01 and 4.40E+01
same,PfSTART1 knockdown,[2]; CR-WT schizonts,75%
same,PfSTART1 knockdown,[2]; SLI-N309K schizonts,43%
same,"START densitometry, Norm 0 mM [EXP2]",[2]; SLI-N309K,5.39E+01 and 7.05E+01 and 4.74E+01
same,PfSTART1 knockdown,[2]; SLI-N330K schizonts,70%
same,"START densitometry, Norm 0 mM [EXP2]",[2]; SLI-N330K,2.99E+01 and 2.84E+01 and 3.23E+01
same,PfSTART1 knockdown,[2]; SLI-WT schizonts,60%
same,"START densitometry, Norm 0 mM [EXP2]",[2]; SLI-WT,5.15E+01 and 2.89E+01 and 3.95E+01
